We go through three compounds from US20260091143A1, “NEAR-INFRARED IMAGING AGENT AND USES THEREOF” (CASE WESTERN RESERVE UNIVERSITY, priority 2022, published 2026).

Where no end group is shown, it is not given here. Where only a bound is given, the exact number is not on record here.

The subject of data set [1] is LN-229 glioma flank tumor. Nature of the data set: Ex vivo fluorescence of excised tumors. To be noted: 24 h, ICG-labeled agents 300 nmol/kg, ICG 400 nmol/kg, Welch's t-test. The class given is in vivo, mice. The source says: (§1) All applicable institutional and/or NIH guidelines for the care and use of animals were followed. The Case Western Reserve University Institutional Animal Care and Use Committee reviewed and approved the animal protocols. Outbred homozygous female nude mice (Fox1^nu/Fox1^nu) were purchased from Jackson Laboratory, Bar Harbor, ME, USA. Details of the human glioblastoma LN-229 cell line have been described previously. LN-229 cells express the PTPμ biomarker and have been used in previous studies for evaluating PTPμ-targeted agents using different imaging modalities. Flank tumors were started in the right flank of mice at approximately 7 weeks of age by injecting a mixture of 2×10^6 cells and Matrigel® Matrix (Corning®, Corning Inc., Corning, NY, USA). Experiments were performed in mice 4 to 8 weeks after implanting the tumors.
(§2) The IVIS Spectrum In vivo Imaging System and Living Image analysis software, (Perkin Elmer, Hopkinton, MA, USA) were used for acquisition and analysis of mouse images. Prior to the experiment, mice were weighed, and baseline images acquired using the appropriate filter sets and the autoexposure setting. Three filter sets for excitation/emission were used: 745 nm/800 nm, 745 nm/820 nm, 745 nm/840 nm. The filter set showing highest fluorescence intensity for a fluorophore was used throughout for that dye. For ICG, 745 nm/820 nm was used and for IRDye® 800CW and Tide Fluor™ 8WS, 745 nm/800 nm was used. Agent stocks were diluted in saline or PBS to ˜100 μM and the volume needed for the desired dose of 300 nmol/kg or 400 nmol/kg calculated. Doses were loaded into polyurethane tubing and connected to a 1 mL syringe as previously described. Mice were anesthetized in an induction chamber with 2% isoflurane-oxygen and moved onto a 37° C. heated platform with a nose cone. 26-gauge veterinary catheters were placed in each tail and the preloaded tubing was connected. Agents were injected over 30 sec, catheters were removed, and animals placed in the prepared Spectrum imaging chamber. Images were acquired beginning 10 min after injecting the agents. For SBK2-CCLE-IR800 and Scram-CCLE-IR800, images were acquired every 10 min for 60 min. For the ICG-labeled and TF8WS-labeled peptides, images were acquired at 10 min, 30 min, 1 h, 2 h, 4 h, 8 h, and 24 h. At the end of the imaging time, the animals were euthanized by CO2 asphyxiation, and the tumor and other organs excised and imaged on the Spectrum.
Living Image analysis software was used for region of interest (ROI) analysis of the optical data. […] After outlining the tumor ROIs, fluorescence was measured with the built-in Spectrum function. […]
LivingImage software measures fluorescence intensity in units of radiant efficiency. […]

A short description of data set [2]: Ex vivo fluorescence in excised kidneys, spleen and liver. Set-up: species or system mice.
Description: as §2
(§3) Living Image analysis software was used for region of interest (ROI) analysis of the optical data. Images acquired for each time point consist of a fluorescent image superimposed on a photographic image. Binning was set to 1 and in vivo tumor ROIs were manually drawn based on contours visible in the black and white photograph for each timepoint. After outlining the tumor ROIs, fluorescence was measured with the built-in Spectrum function. For excised tumors, kidneys, spleen and liver, ROIs were drawn around the perimeter of the tumor or organ.
(§4) LivingImage software measures fluorescence intensity in units of radiant efficiency. For these analyses, average radiant efficiency measurements in (photons/s/cm^2/steradian)/(μW/cm^2) were used for further comparisons to account for differences in tumor and organ size. GraphPad Prism 9 was used for plots and statistical analyses. Where indicated, means for pairs of agents were compared using a two-tailed t-test with Welch's correction and statistical significance was assumed at p<0.05. Welch's correction was used to eliminate assumptions about variance between the groups being compared.

Data set [3] deals with LN-229 glioma flank tumor. The data set can be described thus: In vivo fluorescent imaging of tumor signal in LN-229 flank tumor-bearing nude mice. To be noted: for p-value, in vivo tumor ROI mean, ICG vs SBK2-CLE-ICG: ICG 400 nmol/kg vs 300 nmol/kg SBK2-CLE-ICG; for p-value, in vivo tumor ROI mean, ICG vs SBK2-CLE-ICG / p-value, in vivo tumor ROI mean, ICG vs SBK2-ICG / p-value, in vivo tumor ROI mean, ICG vs Scram-CLE-ICG / p-value, in vivo tumor ROI mean, ICG vs Scram-ICG: Welch's t-test; for p-value, in vivo tumor ROI mean, ICG vs SBK2-ICG: ICG 400 nmol/kg vs 300 nmol/kg SBK2-ICG; for p-value, in vivo tumor ROI mean, ICG vs Scram-CLE-ICG: ICG 400 nmol/kg vs 300 nmol/kg Scram-CLE-ICG; for p-value, in vivo tumor ROI mean, ICG vs Scram-ICG: ICG 400 nmol/kg vs 300 nmol/kg Scram-ICG.
Description: as §1, §2, §3, §4

Data set [4] can be described thus: Whole-body and ventral fluorescent imaging of biodistribution and clearance. To be noted: for clearance via the renal system: mouse, in vivo. The class given is in vivo, mice.
Description: as §2

The nature of data set [5]: RP-HPLC and LC-MS/MS of IRDye 800CW-labeled agent stocks warmed to room temperature. The note with it: RP-HPLC. It is filed as physicochemical. The text has this:
The hydrophilic nature and pH sensitivity of the IRDye® 800CW precluded on-resin coupling in the organic solvents and TFA-based cleavage cocktail used for ICG-labeled molecules. IRDye® 800CW maleimide was conjugated in aqueous solution following the manufacturer's recommended protocol to cysteine residues at the N-termini of the peptides and obtained at >95% purity from PolyPeptide Group. Additional LC-MS/MS analyses using an Orbitrap Elite LC-MS, purchased via an NIH shared instrument grant, 1S10RR031537-01, were performed on these agents by the Lerner Research Institute Proteomics Core at the Cleveland Clinic.
Similar to Tide Fluor™ 8WS, the hydrophilic nature of the IRDye® 800CW results in elution of the SBK2-CCLE-IR800 at around 25 min (FIG. 7). In assessing the IRDye® 800CW-labeled agents by RP-HPLC however, a second peak appeared when the SBK2-CCLE-IR800 and Scrambled-CCLE-IR800 stocks were warmed to room temperature. LC-MS/MS analysis was performed and confirmed the identity of the main peak as belonging the agents with the closed succinimide ring, while the second peak, representing around 30% of the material, and eluting slightly earlier than the main peak was identified as containing an open succinimide ring (FIG. 1).

The mark [6] stands for this setting: Kidney, 24 h, ICG-labeled agents 300 nmol/kg, ICG 400 nmol/kg, Welch's t-test.
[7] abbreviates: Liver, 24 h, ICG-labeled agents 300 nmol/kg, ICG 400 nmol/kg, Welch's t-test.
Where [8] appears, read: Spleen, 24 h, ICG-labeled agents 300 nmol/kg, ICG 400 nmol/kg, Welch's t-test.

Regarding `CC1(C)C(/C=C/C=C/C=C/C=C2\N(CCCCS(=O)(=O)O)c3ccc4ccccc4c3C2(C)C)=[N+](CCCCS(=O)(=O)[O-])c2ccc3ccccc3c21` [ICG, indocyanine green], in data set [1], the “p-value, average radiant efficiency of excised tumor vs SBK2-CLE-ICG” value stood at 0.003; the “p-value, average radiant efficiency of excised tumor vs SBK2-ICG” value is given as less than 0.001; the “p-value, average radiant efficiency of excised tumor vs Scram-CLE-ICG” value is 0.019; the “p-value, average radiant efficiency of excised tumor vs Scram-ICG” value was 0.003. In data set [2] (setting [6]), the “p-value, average radiant efficiency of excised kidney vs SBK2-CLE-ICG” value was less than 0.001; the “p-value, average radiant efficiency of excised kidney vs SBK2-ICG” value is less than 0.001; the “p-value, average radiant efficiency of excised kidney vs Scram-CLE-ICG” value was found to be 0.008; the “p-value, average radiant efficiency of excised kidney vs Scram-ICG” value is listed as 0.003. In data set [2] (setting [7]), the “p-value, average radiant efficiency of excised liver vs SBK2-CLE-ICG” value is 0.004; the “p-value, average radiant efficiency of excised liver vs SBK2-ICG” value is reported as less than 0.001; the “p-value, average radiant efficiency of excised liver vs Scram-CLE-ICG” value is on record as less than 0.001; the “p-value, average radiant efficiency of excised liver vs Scram-ICG” value came out at 0.013. In data set [2] (setting [8]), the “p-value, average radiant efficiency of excised spleen vs SBK2-CLE-ICG” value is recorded as less than 0.001; the “p-value, average radiant efficiency of excised spleen vs SBK2-ICG” value is recorded as less than 0.001; the “p-value, average radiant efficiency of excised spleen vs Scram-CLE-ICG” value is on record as less than 0.001; the “p-value, average radiant efficiency of excised spleen vs Scram-ICG” value turned out to be 0.004. Further, in data set [3] (10 min), the “p-value, in vivo tumor ROI mean, ICG vs SBK2-CLE-ICG” value (“p-value … ICG vs SBK2-CLE-ICG” for short) is on record as less than 0.001; the “p-value, in vivo tumor ROI mean, ICG vs SBK2-ICG” value (“p-value … ICG vs SBK2-ICG” below) is less than 0.001; the “p-value, in vivo tumor ROI mean, ICG vs Scram-CLE-ICG” value (shortened to “p-value … ICG vs Scram-CLE-ICG”) is recorded as less than 0.001; the “p-value, in vivo tumor ROI mean, ICG vs Scram-ICG” value (from here on “p-value … ICG vs Scram-ICG”) was less than 0.001. For the same compound, in data set [3] (30 min), the “p-value … ICG vs SBK2-CLE-ICG” value is less than 0.001; the “p-value … ICG vs SBK2-ICG” value is listed as less than 0.001; the “p-value … ICG vs Scram-CLE-ICG” value is less than 0.001; the “p-value … ICG vs Scram-ICG” value is less than 0.001. Besides, in data set [3] (24 h), the “p-value … ICG vs SBK2-CLE-ICG” value is listed as less than 0.001; the “p-value … ICG vs SBK2-ICG” value is listed as less than 0.001; the “p-value … ICG vs Scram-CLE-ICG” value is reported as “ns”; the “p-value … ICG vs Scram-ICG” value is given as less than 0.001. For the same compound, in data set [3] (ICG dye 400 nmol/kg), the “in vivo tumor fluorescence produced” value is on record as “very little in vivo tumor fluorescence” and the “time of peak in vivo tumor signal” value is listed as no more than 10 min. Besides, the “clearance compared to ICG-conjugated peptides” value in data set [4] (ICG dye 400 nmol/kg) was “cleared much more rapidly”.
For “SBK2-CCLE-IR800: IRDye 800CW maleimide conjugated to N-terminal cysteine of C.GGSGGS.GEGDDFNWEQVNTLTKPTSD (SEQ ID NO: 50) ({C(IRDye 800CW maleimide)}-GGSGGSGEGDDFNWEQVNTLTKPTSD)”, the “difference in in vivo tumor average radiant efficiency vs Scram-CCLE-IR800” value in data set [3] (400 nmol/kg, every ten minutes for 60 minutes) is “No significant differences”. For the same compound, in data set [3] (400 nmol/kg, versus Scrambled control agents), the specific tumor labeling entry was “no specific tumor labeling”. In addition, in data set [5], the “second peak containing an open succinimide ring, share of the material” value is reported as “around 30%”. Moreover, the “clearance via the renal system” value in data set [4] is recorded as “more rapidly than expected”.
In the case of “Scram-CCLE-IR800: IRDye 800CW maleimide conjugated to N-terminal cysteine of C.GGSGGS.GFTQPETGTDNDLWSVDNEK (SEQ ID NO: 51) ({C(IRDye 800CW maleimide)}-GGSGGSGFTQPETGTDNDLWSVDNEK)”, the “difference in liver fluorescence vs SBK2-CCLE-IR800” value in data set [2] (400 nmol/kg, 60 min, liver) is reported as “No significant difference”. In addition, the “second peak containing an open succinimide ring, share of the material” value in data set [5] is “around 30%”. For the same compound, the “clearance via the renal system” value in data set [4] was “more rapidly than expected”.
